Assay results: US9315498B2, “Arlethynyl derivatives” (Hoffmann-La Roche Inc., priority 2010, dated 2016)

Target: human mGlu5a receptor (Homo sapiens (Human), UniProt P41594)
Experiment: Intracellular Ca2+ mobilization assay (mGlu5 PAM)
Format: cell-based
Conditions: for EC50: HEK-293 cells stably transfected with human mGlu5a, L-glutamate added at EC20 after pre-incubation with test compound, read-out: EC50 (nM) mGlu5PAM; for Emax: maximal response in % of the maximal stimulatory effect obtained with saturating concentrations of L-glutamate, read-out: Eff. (%)
Procedure: A monoclonal HEK-293 cell line stably transfected with a cDNA encoding for the human mGlu5a receptor was generated; for the work with mGlu5 Positive Allosteric Modulators (PAMs), a cell line with low receptor expression levels and low constitutive receptor activity was selected to allow the differentiation of agonistic versus PAM activity. Cells were cultured according to standard protocols (Freshney, 2000) in Dulbecco's Modified Eagle Medium with high glucose supplemented with 1 mM glutamine, 10% (vol/vol) heat-inactivated bovine calf serum, Penicillin/Streptomycin, 50 μg/ml hygromycin and 15 μg/ml blasticidin (all cell culture reagents and antibiotics from Invitrogen, Basel, Switzerland).
About 24 hrs before an experiment, 5×10^4 cells/well were seeded in poly-D-lysine coated, black/clear-bottomed 96-well plates. The cells were loaded with 2.5 μM Fluo-4AM in loading buffer (1×HBSS, 20 mM HEPES) for 1 hr at 37° C. and washed five times with loading buffer. The cells were transferred into a Functional Drug Screening System 7000 (Hamamatsu, Paris, France), and 11 half logarithmic serial dilutions of test compound at 37° C. were added and the cells were incubated for 10-30 min. with on-line recording of fluorescence. Following this pre-incubation step, the agonist L-glutamate was added to the cells at a concentration corresponding to EC20 (typically around 80 μM) with on-line recording of fluorescence; in order to account for day-to-day variations in the responsiveness of cells, the EC20 of glutamate was determined immediately ahead of each experiment by recording of a full dose-response curve of glutamate.
Responses were measured as peak increase in fluorescence minus basal (i.e. fluorescence without addition of L-glutamate), normalized to the maximal stimulatory effect obtained with saturating concentrations of L-glutamate. Graphs were plotted with the % maximal stimulatory using XLfit, a curve fitting program that iteratively plots the data using Levenburg Marquardt algorithm. The single site competition analysis equation used was y=A+((B−A)/(1+((x/C)D))), where y is the % maximal stimulatory effect, A is the minimum y, B is the maximum y, C is the EC50, x is the log10 of the concentration of the competing compound and D is the slope of the curve (the Hill Coefficient). From these curves the EC50 (concentration at which half maximal stimulation was achieved), the Hill coefficient as well as the maximal response in % of the maximal stimulatory effect obtained with saturating concentrations of L-glutamate were calculated.
A depression of the signal observed after addition of the EC20 concentration of L-glutamate was indicative of an inhibitory activity of the test compound.

Chain of human mGlu5a receptor (P41594 other isoform, or with tags, fused parts or gaps): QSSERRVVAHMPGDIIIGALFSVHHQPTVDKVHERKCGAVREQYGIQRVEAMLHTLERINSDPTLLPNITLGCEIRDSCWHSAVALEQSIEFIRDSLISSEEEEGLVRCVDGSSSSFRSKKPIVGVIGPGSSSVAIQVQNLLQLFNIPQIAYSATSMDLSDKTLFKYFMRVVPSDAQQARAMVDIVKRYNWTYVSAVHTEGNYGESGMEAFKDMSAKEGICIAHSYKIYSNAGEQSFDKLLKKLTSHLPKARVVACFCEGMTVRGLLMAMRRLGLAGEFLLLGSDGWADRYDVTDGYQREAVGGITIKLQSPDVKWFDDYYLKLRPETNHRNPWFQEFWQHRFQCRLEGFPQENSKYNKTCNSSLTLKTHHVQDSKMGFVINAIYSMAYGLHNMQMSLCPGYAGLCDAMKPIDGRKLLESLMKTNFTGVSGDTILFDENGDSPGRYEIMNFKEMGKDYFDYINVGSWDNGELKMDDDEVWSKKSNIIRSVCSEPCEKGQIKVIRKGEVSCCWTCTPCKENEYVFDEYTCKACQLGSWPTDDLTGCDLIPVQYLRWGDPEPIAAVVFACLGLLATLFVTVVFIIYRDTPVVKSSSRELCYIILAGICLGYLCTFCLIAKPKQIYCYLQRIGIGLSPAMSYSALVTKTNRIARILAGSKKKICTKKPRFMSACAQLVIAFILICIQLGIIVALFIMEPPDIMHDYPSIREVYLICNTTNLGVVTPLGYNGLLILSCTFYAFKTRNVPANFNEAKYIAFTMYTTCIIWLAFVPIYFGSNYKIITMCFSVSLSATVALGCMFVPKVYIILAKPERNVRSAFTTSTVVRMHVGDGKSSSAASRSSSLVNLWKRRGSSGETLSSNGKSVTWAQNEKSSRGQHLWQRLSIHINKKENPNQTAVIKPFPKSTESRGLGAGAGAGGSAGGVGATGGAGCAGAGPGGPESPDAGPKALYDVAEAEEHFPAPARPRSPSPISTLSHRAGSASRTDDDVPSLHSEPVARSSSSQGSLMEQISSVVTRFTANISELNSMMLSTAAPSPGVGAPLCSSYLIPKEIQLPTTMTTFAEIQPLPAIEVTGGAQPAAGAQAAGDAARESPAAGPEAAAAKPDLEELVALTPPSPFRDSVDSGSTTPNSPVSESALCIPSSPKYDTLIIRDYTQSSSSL

| Structure (SMILES) | EC50 [nM] | Emax [%] |
| --- | --- | --- |
| CN1C(=O)N(c2ccc(C#Cc3cccc(F)c3)cn2)[C@@H]2CCC[C@@H]21 (racemic) [Example 109, (3aSR,6aRS)-1-[5-(3-Fluoro-phenylethynyl)-pyridin-2-yl]-3-methyl-hexahydro-cyclopenta-imidazol-2-one] | 18 | 37 |
| COC1CN(c2ccc(C#Cc3ccccc3)cn2)C(=O)OC1(C)C (racemic) [Example 114, (RS)-5-Methoxy-6,6-dimethyl-3-(5-phenylethynyl-pyridin-2-yl)-[1,3]oxazinan-2-one] | 22 | 57 |
| COC1C(=O)N(c2ncc(C#Cc3ccccc3)cn2)CC1(C)C (racemic) [Example 127, (RS)-3-Methoxy-4,4-dimethyl-1-(5-phenylethynyl-pyrimidin-2-yl)-pyrrolidin-2-one] | 29 | 94 |
| COC1C(=O)N(c2ncc(C#Cc3cccc(F)c3)cn2)CC1(C)C (racemic) [Example 130, (RS)-1-[5-(3-Fluoro-phenylethynyl)-pyrimidin-2-yl]-3-methoxy-4,4-dimethyl-pyrrolidin-2-one] | 41 | 74 |
| CC1CN(c2ncc(C#Cc3ccccc3)cn2)C(=O)OC1(C)C (racemic) [Example 145, (RS)-5,6,6-Trimethyl-3-(5-phenylethynyl-pyrimidin-2-yl)-[1,3]oxazinan-2-one] | 38 | 93 |
| CC1CN(c2ncc(C#Cc3cc(F)ccc3F)cn2)C(=O)OC1(C)C (racemic) [Example 146, (RS)-3-[5-(2,5-Difluoro-phenylethynyl)-pyrimidin-2-yl]-5,6,6-trimethyl-[1,3]oxazinan-2-one] | 69 | 64 |
| CC1CN(c2ncc(C#Cc3cccc(F)c3)cn2)C(=O)OC1(C)C (racemic) [Example 148, (RS)-3-[5-(3-Fluoro-phenylethynyl)-pyrimidin-2-yl]-5,6,6-trimethyl-[1,3]oxazinan-2-one] | 39 | 75 |
| CC1CN(c2ncc(C#Cc3ccc(F)cc3)cn2)C(=O)OC1(C)C (racemic) [Example 149, (RS)-3-[5-(4-Fluoro-phenylethynyl)-pyrimidin-2-yl]-5,6,6-trimethyl-[1,3]oxazinan-2-one] | 114 | 78 |
| COC1CN(c2ccc(C#Cc3cccc(F)c3)cn2)C(=O)OC1(C)C (racemic) [Example 169, (RS)-3-[5-(3-Fluoro-phenylethynyl)-pyridin-2-yl]-5-methoxy-6,6-dimethyl-[1,3]oxazinan-2-one] | 13 | 52 |
| CN1C(=O)N(c2ccc(C#Cc3ccccc3)nn2)[C@@H]2CCC[C@@H]21 (racemic) [Example 170, (3aRS,6aSR)-1-Methyl-3-(6-phenylethynyl-pyridazin-3-yl)-hexahydro-cyclopentaimidazol-2-one] | 13 | 105 |
| CC1CN(c2ccc(C#Cc3ccccc3)cn2)C(=O)CO1 (racemic) [Example 171, (RS)-6-Methyl-4-(5-phenylethynyl-pyridin-2-yl)-morpholin-3-one] | 88 | 73 |
| CN1C(=O)N(c2ccc(C#Cc3cccc(F)c3)nn2)[C@@H]2CCC[C@@H]21 (racemic) [Example 174, (3aSR,6aRS)-1-[6-(3-Fluoro-phenylethynyl)-pyridazin-3-yl]-3-methyl-hexahydro-cyclopentaimidazol-2-one] | 12 | 56 |
| COC[C@H]1CN(c2ccc(C#Cc3ccccc3)cn2)C(=O)O1 (single isomer, unassigned) [Example 3, (5R or 5S)-5-Methoxymethyl-3-(5-phenylethynyl-pyridin-2-yl)-oxazolidin-2-one] | 18 | 46 |
| COC[C@@H]1CN(c2ccc(C#Cc3ccccc3)cn2)C(=O)O1 (single isomer, unassigned) [Example 4, (5S or 5R)-5-Methoxymethyl-3-(5-phenylethynyl-pyridin-2-yl)-oxazolidin-2-one] | 278 | 98 |
| CO[C@@H]1C(=O)N(c2ccc(C#Cc3ccccc3)cn2)CC1(C)C (single isomer, unassigned) [Example 61] | 75 | 70 |
| CO[C@H]1C(=O)N(c2ccc(C#Cc3ccccc3)cn2)CC1(C)C (single isomer, unassigned) [Example 62] | 12 | 86 |
| CO[C@@H]1C(=O)N(c2ncc(C#Cc3ccccc3)cn2)CC1(C)C (single isomer, unassigned) [Example 128] | 46 | 54 |

| Structure (SMILES) | EC50 [nM] | Emax [%] |
| --- | --- | --- |
| CO[C@H]1C(=O)N(c2ncc(C#Cc3ccccc3)cn2)CC1(C)C (single isomer, unassigned) [Example 129] | 18 | 90 |
| CO[C@@H]1C(=O)N(c2ncc(C#Cc3cccc(F)c3)cn2)CC1(C)C (single isomer, unassigned) [Example 131, (R or S)-1-[5-(3-Fluoro-phenylethynyl)-pyrimidin-2-yl]-3-methoxy-4,4-dimethyl-pyrrolidin-2-one] | 35 | 48 |
| CO[C@H]1C(=O)N(c2ncc(C#Cc3cccc(F)c3)cn2)CC1(C)C (single isomer, unassigned) [Example 132, (S or R)-1-[5-(3-Fluoro-phenylethynyl)-pyrimidin-2-yl]-3-methoxy-4,4-dimethyl-pyrrolidin-2-one] | 21 | 69 |
| CO[C@@H]1C(=O)N(c2ncc(C#Cc3cc(F)ccc3F)cn2)CC1(C)C (single isomer, unassigned) [Example 133, (R or S)-1-[5-(2,5-Difluoro-phenylethynyl)-pyrimidin-2-yl]-3-methoxy-4,4-dimethyl-pyrrolidin-2-one] | 57 | 49 |
| CC1(C)CN(c2ncc(C#Cc3ccccc3)cc2F)C(=O)O1 [Example 1, 3-(3-Fluoro-5-phenylethynyl-pyridin-2-yl)-5,5-dimethyl-oxazolidin-2-one] | 30 | 68 |
| CC1(C)CN(c2ccc(C#Cc3ccccc3)cn2)C(=O)O1 [Example 5, 5,5-Dimethyl-3-(5-phenylethynyl-pyridin-2-yl)-oxazolidin-2-one] | 7 | 77 |
| CC1(C)CN(c2ccc(C#Cc3cccc(F)c3)cn2)C(=O)O1 [Example 6, 3-[5-(3-Fluoro-phenylethynyl)-pyridin-2-yl]-5,5-dimethyl-oxazolidin-2-one] | 9 | 46 |
| CC1(C)CN(c2ccc(C#Cc3cccnc3)cn2)C(=O)O1 [Example 7, 5,5-Dimethyl-3-(5-pyridin-3-ylethynyl-pyridin-2-yl)-oxazolidin-2-one] | 33 | 39 |
| O=C1OC2(CC2)CN1c1ccc(C#Cc2ccccc2)cn1 [Example 9, 6-(5-Phenylethynyl-pyridin-2-yl)-4-oxa-6-aza-spiro[2.4]heptan-5-one] | 15 | 83 |
| O=C1OC2(CCC2)CN1c1ccc(C#Cc2ccccc2)cn1 [Example 10, 7-(5-Phenylethynyl-pyridin-2-yl)-5-oxa-7-aza-spiro[3.4]octan-6-one] | 25 | 109 |
| O=C1OC2(CCCC2)CN1c1ccc(C#Cc2ccccc2)cn1 [Example 11, 3-(5-Phenylethynyl-pyridin-2-yl)-1-oxa-3-aza-spiro[4.4]nonan-2-one] | 39 | 52 |
| O=C1OC2(CCCCC2)CN1c1ccc(C#Cc2ccccc2)cn1 [Example 12, 3-(5-Phenylethynyl-pyridin-2-yl)-1-oxa-3-aza-spiro[4.5]decan-2-one] | 67 | 80 |
| CC1(C)CC(=O)N(c2ccc(C#Cc3ccccc3)cn2)C1 [Example 13, 4,4-Dimethyl-1-(5-phenylethynyl-pyridin-2-yl)-pyrrolidin-2-one] | 37 | 129 |
| CC1(C)CN(c2ccc(C#Cc3ccccc3)cn2)C(=O)N1 [Example 15, 4,4-Dimethyl-1-(5-phenylethynyl-pyridin-2-yl)-imidazolidin-2-one] | 130 | 101 |
| CN1C(=O)N(c2ccc(C#Cc3ccccc3)cn2)CC1(C)C [Example 16, 3,4,4-Trimethyl-1-(5-phenylethynyl-pyridin-2-yl)-imidazolidin-2-one] | 35 | 103 |
| CCN1C(=O)N(c2ccc(C#Cc3ccccc3)cn2)CC1(C)C [Example 17, 3-Ethyl-4,4-dimethyl-1-(5-phenylethynyl-pyridin-2-yl)-imidazolidin-2-one] | 66 | 103 |
